Legend:
[1] = test system: mitochondria isolated from rat striatum; experiment: Respiratory control (oxygen consumption) of isolated striatum mitochondria; assay type: biochemical
Experimental: The animal was then decapitated in order to collect from the brain either the cortex or the striatum, which were quickly placed in a Potter Elvejhem® containing 6 ml of extraction buffer at 4° C. (250 mM sucrose, 40 mM KCl, 2 mM EGTA, lmg/ml BSA, 20 mM Tris, pH=7.2). This mixture was homogenized to break open the cells and release the mitochondria and then centrifuged at 2000 g for 8 minutes to remove the larger membrane debris and the nuclei from the pellet. The supernatant was then recovered and centrifuged at 13,000 g for 11 minutes. The supernatant was discarded while the pellet containing a mitochondria-rich fraction was resuspended in 500 μl of respiration buffer at 4° C. (300 mM D-mannitol, 10 mM KCl, 10 mM KH2PO4, 5 mM MgCl2, pH=7.2). […]
Added to the polarography chamber (Hansatech) were 30 μl of mitochondria solution (0.2 mg), 460 μL of respiration buffer, 5 μl of test compound solution (meaning MPP+ or furosemide pyridinium) (or its solubilizing solvent). […] The effect of the compound on respiratory control was evaluated (ratio of stage 3 to 4), which corresponds to the coupling of the respiratory chain, or in other words the ATP synthesis at complex V and the oxygen consumption due to complexes I to IV. The results are expressed as percentages of the value measured for mitochondria not treated with the test compound (but treated with the solubilizing solvent).

rats = experiment: Lethality of 7-day oral administration in rats; assay type: in vivo, rat; details: daily dose of 20 mg/kg for seven days
Experimental: (§1) A platform for electrophysiological and behavioral monitoring of the rats was used. For this, a subcutaneous implant (Data Science) was placed in the rats which allowed the EEG to be recorded by telemetry, leaving the animal completely free to move about. The cage was equipped with a video camera (10 frames per second) and an infrared light to allow recordation of the animal's activity. The EEG and video sequences were recorded in sequences of 10 seconds, and a set of variables was calculated for each sequence. The use of dedicated software allowed integration of these variables over the entire recording to detect changes in the animal's activity, EEG, and circadian rhythms. Each animal served as its own control because it was recorded for 5 days prior to furosemide pyridinium administration. The solution of furosemide pyridinium (20 mg) was dissolved in dimethylsulfoxide (DMSO, 200 μl) and then diluted with water (50 ml). The solution was replaced every day and administered for 7 days in the drinking water at a dose of 20 mg/kg. The rats were then sacrificed 5 weeks after the last dose. The rats were anesthetized with pentobarbital and infused intracardially with saline ([…]), then fixed with 4% paraformaldehyde. After the infusion, the brain was removed and placed in NaCl (0.9%) at 4° C. The brain was frozen in Tissue Tek immersed in a cold isopentane bath. […]

[2] = test system: mitochondrial respiratory chain; experiment: Respiratory chain activity of mitochondria from striata of exposed mice; assay type: in vivo, mouse; details: 20 mg/kg/day oral 7 days, 30 days after end of exposure
Experimental: Added to the polarography chamber (Hansatech) were 30 μl of mitochondria solution (0.2 mg), 460 μL of respiration buffer, 5 μl of test compound solution (meaning MPP+ or furosemide pyridinium) (or its solubilizing solvent). Then 5 μl of a 10/10 mM mixture of malate-pyruvate substrates were added, which allowed the respiratory chain to function (stage 2) starting from complex I. After about 40 seconds, 5 μl of 200 μM ADP were added, resulting in an increase in oxygen consumption as the ADP activated complex V (stage 3). Once all the ADP was consumed, the oxygen consumption returned to an initial stage (stage 4) that is equivalent to stage 2. The effect of the compound on respiratory control was evaluated (ratio of stage 3 to 4), which corresponds to the coupling of the respiratory chain, or in other words the ATP synthesis at complex V and the oxygen consumption due to complexes I to IV. The results are expressed as percentages of the value measured for mitochondria not treated with the test compound (but treated with the solubilizing solvent).
Swiss mice were divided into two groups of five animals (experimental and control). The experiments were performed independently two times. The mice of the experimental group were exposed to furosemide pyridinium for 7 days at a daily dose of 20 mg/kg. The furosemide pyridinium was administered orally in the drinking water. […]

[3] = test system: alpha-synuclein in the striata; experiment: Immunolabeling of alpha-synuclein in coronal striatum sections of exposed rats; assay type: in vivo, rat; details: 20 mg/kg/day oral 7 days, sacrificed 5 weeks after last dose
Text: (§2) Male albino Sprague Dawley rats (adults weighing […]) were housed in a temperature-controlled room with free access to food and water.
as §1, with “paraformaldehyde.” for “paraformaldehyde. After the infusion, the brain was removed and placed in NaCl (0.9%) at 4° C. The brain was frozen in Tissue Tek immersed in a cold isopentane bath.”

Sprague Dawley rats = experiment: EEG and sleep/arousal telemetry monitoring of exposed rats; assay type: in vivo, rat; details: 20 mg/kg/day oral 7 days
Text: as §2
A platform for electrophysiological and behavioral monitoring of the rats was used. For this, a subcutaneous implant (Data Science) was placed in the rats which allowed the EEG to be recorded by telemetry, leaving the animal completely free to move about. The cage was equipped with a video camera (10 frames per second) and an infrared light to allow recordation of the animal's activity. The EEG and video sequences were recorded in sequences of 10 seconds, and a set of variables was calculated for each sequence. The use of dedicated software allowed integration of these variables over the entire recording to detect changes in the animal's activity, EEG, and circadian rhythms. Each animal served as its own control because it was recorded for 5 days prior to furosemide pyridinium administration. The solution of furosemide pyridinium (20 mg) was dissolved in dimethylsulfoxide (DMSO, 200 μl) and then diluted with water (50 ml). The solution was replaced every day and administered for 7 days in the drinking water at a dose of 20 mg/kg. The rats were then sacrificed 5 weeks after the last dose. The rats were anesthetized with pentobarbital and infused intracardially with saline ([…]), then fixed with 4% paraformaldehyde. After the infusion, the brain was removed and placed in NaCl (0.9%) at 4° C. The brain was frozen in Tissue Tek immersed in a cold isopentane bath. Coronal sections of eight microns were obtained using a cryostat and were processed for immunocytochemistry (labeling the alpha-synuclein).

complex I = experiment: Complex I activity of mitochondria from striata of exposed mice; assay type: in vivo, mouse; details: 20 mg/kg/day oral 7 days, 30 days after end of exposure
Experimental: The kinetics of the oxidation reaction of NADH into NAD+ at 340 nm at 37° C. were continuously monitored by spectrophotometry using a JASCO V-530 spectrophotometer or a TECAN 1000M Infinite plate reader, set to a wavelength of 340 nm for 3 min. The amount of mitochondria extract to obtain the maximum activity introduced into the reaction volume was 100 μg with the spectrophotometer and 10 μg with the reader. Each manipulation must be done at substrate saturation, which is an NADH concentration of 160 μM. Mitochondria previously divided into multiple aliquots were frozen, then quickly thawed a few minutes before use. In a first step, the mitochondria extract was introduced into the hypotonic buffer (50 mM KH2PO4 and 10 mM MgCl2, pH=7.2 at 37° C.) for 2 minutes to break open the mitochondrial membranes and access the respiratory chain (Chretien et al., Biochem Biophys Res Commun, 2003, 301(1):222-4). […] The slope of the kinetics was then measured. […] The inhibition percentage was then calculated. […]
For each mouse sacrificed, cortex and striatum samples had been previously collected and processed to extract the mitochondria. The activity of the mitochondrial respiratory chain and of complex I were determined as described in Part B above, in the “Materials and Methods” subsection (without addition of furosemide pyridinium or an analog to the medium).

Q: What does the source list for `NS(=O)(=O)c1cc(C(=O)[O-])c(-[n+]2cccc(O)c2)cc1Cl` [furosemide pyridinium, 4-chloro-2-(3-hydroxypyridinium-1-yl)-5-sulfamoylbenzoate]?
A: effect on striatal mitochondria versus cortex mitochondria ([1]; comparison striatum vs cortex): greater on striatal mitochondria; oxygen consumption of striatum mitochondria ([1]; dose-response): decrease in oxygen consumption; lethality (rats): not lethal; decrease in respiratory control of striatal mitochondria vs control animals [2]: 28%; alpha-synuclein in the striata (immunolabeling) [3]: significant increase; increase in number of REM sleep phases (Sprague Dawley rats; five weeks after end of exposure): 2 ×; sleep and arousal phases (Sprague Dawley rats; five weeks after end of treatment): do not indicate changes; amplitude of the electroencephalogram (Sprague Dawley rats; five weeks after end of treatment vs before exposure): significant decrease; decrease in activity of complex I of striatal mitochondria vs control animals (complex I): 49%

From patent US9744250B2, “Chemical model of a neurodegenerative disease, method for preparation and uses of same” (priority 2012, dated 2017)
